In general, EC50 refers to the concentration at which the effect is half-maximal. A lower EC50 goes with a more potent agent.

In data set [1] the target is T1, PNPLA3 I148M (Homo sapiens, UniProt Q9NST1, I148M).
T1 sequence (Q9NST1 1-481 I148M): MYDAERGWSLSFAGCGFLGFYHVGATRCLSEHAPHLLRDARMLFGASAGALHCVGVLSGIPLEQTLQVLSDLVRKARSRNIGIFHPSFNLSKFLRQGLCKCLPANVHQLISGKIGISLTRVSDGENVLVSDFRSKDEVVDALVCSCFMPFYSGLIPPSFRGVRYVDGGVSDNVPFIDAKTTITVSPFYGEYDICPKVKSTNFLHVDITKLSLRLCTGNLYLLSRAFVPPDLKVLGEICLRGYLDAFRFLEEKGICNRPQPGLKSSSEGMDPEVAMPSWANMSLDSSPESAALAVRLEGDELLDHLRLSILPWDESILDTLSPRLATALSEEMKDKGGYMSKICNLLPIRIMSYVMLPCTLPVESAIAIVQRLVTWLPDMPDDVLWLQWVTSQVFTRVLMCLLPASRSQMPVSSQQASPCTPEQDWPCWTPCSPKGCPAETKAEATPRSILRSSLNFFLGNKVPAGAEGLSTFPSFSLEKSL
In words: Western blot anti-PNPLA3, Huh7 PNPLA3 I148M. The data set is classed as cell-based. Set-up: host or cells: Huh7. Conditions: 5µM; 24h; two independent Western Blots, Mean +/- Stdev. Here is the method:
For SDS-PAGE and subsequent western blotting cells were harvested in 1x lysis buffer (50 mM Tris-Cl, pH 7.5, 150 mM NaCl, 1 mM EDTA, 1% Triton X-100) supplemented with complete mini protease inhibitor cocktail (Roche). Total protein concentration of samples was determined with a Bicinchoninic Acid (BCA) protein assay. Cell lysates were boiled for 10 min at 99°C with 1x NuPAGE LDS Sample Buffer and loaded onto a 4-12% Tris-Glycine SDS-PAGE gel. For immunoblotting proteins were transferred to a nitrocellulose membrane (0.2 μm pore size, Schleicher & Schuell) and blocked with Intercept (PBS) Blocking buffer (Licor), incubated with primary antibodies anti-PNPLA3 (1:500, C-8 Santa Cruz, SC-390252), anti-PNPLA3 (1:1000, Millipore, MABS2174) and anti-HSP90 (1:1000, Cell Signaling, #4877), and subsequently incubated with secondary antibodies IRDye 680 or IRDye 800 (1:2000; LI-COR Biosciences). Infrared signal was detected using the Odyssey imaging system (Licor). […]
a. Huh7, PNPLA3 I148M b. Huh7, PNPLA3 I148M-tagRFP […]
control NUV-244 control NUV-244
Supplemental Fig. 9: Western Blot NUV-244 a. […] PNPLA3 bands at 53kDa (unmodified in a.) or 80 kDa (PNPLA3 I148M-tagRFP) were quantified (signal above local background, normalized to loading control using LICOR Odyssey CLx / Image Studio) on two independent Western Blots and percent of intensity compared to DMSO controls calculated (Mean +/ - Stdev). […]
In general terms: A western blot detects proteins with antibodies after separation by electrophoresis.

The target in data set [2] is T1, PNPLA3 I148M. In words: Huh7 untagged PNPLA3 I148M immunofluorescence on lipid droplets. Conditions: anti-PNPLA3 IF; representative curve, Figure 3E. It counts as cell-based. Further details: host or cells: Huh7. Here is the method:
Even though C-terminal tagging is reported not to interfere with PNPLA3 localization,[20] we established an assay to exclude the possibility that C-terminal tagging of PNPLA3 with tagRFP could alter PNPLA3 response to NUV-244 on lipid droplets. For this we generated Huh7 cell lines that express untagged variants of PNPLA3 I148M or PNPLA3 WT and visualized PNPLA3 on lipid droplets by immunofluorescence (Figures 3C, 3D, and S3A).
Cells were fixed with 4% paraformaldehyde for 15 minutes at room temperature. Cells were blocked with 0.2 M glycine, 0.1 mg/mL saponin, and 30 mg/mL bovine serum albumin (BSA) (all Sigma Aldrich) in PBS for 1 hour. Cells were washed 1x with washing buffer (0,1 mg/ml saponin + 1 mg/ml Bovine serum albumin) using a Blue Washer (Blue Cat Bio). Mouse anti-human ADPN (PNPLA3, C-8, #sc-390252, Santa Cruz) and rabbit anti-human PNPLA2 (Sigma Aldrich, #HPA055173-25UL) primary antibodies and appropriate secondary antibodies conjugated with Alexa-Fluor 647 (Jackson ImmunoResearch) were used. […]
Images were acquired by an Opera Phenix confocal spinning disc microscope system (Revvity, Waltham, MA, USA) with a 20x or 40x water objective at 405 nm (Hoechst), 488 nm (BODIPY) and 647 nm. Quantification was carried out with the Harmony (Revvity, Waltham, MA, USA) or MetaXpress software (Molecular Devices). […]

For a further data set, the system named is LX-2 cells. The experiment in a line: Incucyte growth curves, LX-2. The data set is classed as cell-based, human. Conditions: 1μM or 5μM; compared to DMSO. Here is the method: Huh7, Huh7 PNPLA3 I148M, Huh7 PNPLA3, Hep3b and LX-2 cells were seeded at a concentration of 1000 cells/well in 60 μl of growth medium on 384-well microtiter plates (Revvity, Waltham, MA, USA, PhenoPlate 384-well microplate, #6057308) and stored in a 37°C incubator with 5% CO2 and 95% humidity overnight. Next day cells were treated with DMSO as control (1% final concentration) or compound (1μM or 5μM final concentration) and cell density was recorded in the Incucyte® life cell imager (Sartorius, Göttingen, Germany) every 4 hours over a period of 5 days. Growth curves were generated by monitoring confluence over time. Proliferative capacity of PNPLA3 I148M-expressing cells was compared to control cells, and the restoration of proliferative fitness was analyzed.

In the case of `Cc1cccc(Cc2nc(C)c(C(=O)Nc3cc(O)ccc3Cl)s2)c1` [NUV-244], on PNPLA3 I148M [1], the “PNPLA3 band, percent of intensity compared to DMSO controls” value is on record as 67+/-12%. Also, the EC50 at PNPLA3 I148M [2] was 153 nM. The “effect on proliferative capacity, LX-2” value with LX-2 cells is “no effects”.

The values above are taken from paper PMC12049818, “Identification of NUV-244 as a PNPLA3 I148M degrading small molecule” (iScience, 2025).
